ChEMBL document CHEMBL1201862, “PubChem BioAssay data set” (2004)
The source made the active and inactive calls.

Tests used:
[1] = Luminescence Cell-Based Dose Response HTS to Identify Inhibitors of 5'UTR Stem-Loop Driven Prion Protein mRNA Translation in H4 Neuroglioblastoma Cells. [Related pubchem assays: 1827 (Project Summary), 1813 (Primary HTS)]; format: functional
Genome polyprotein = Genome polyprotein (dengue virus type 2, UniProt P29990); assay: Dengue-2 NS5 methyltransferase inhibitors, primary screen, biochemical, confirmation dose response (AID 588689); format: functional
SUMO-activating enzyme = SUMO-activating enzyme (Homo sapiens, UniProt Q9UBT2); assay: SUMOylation inhibitor hit validation, confirmation, SUMOylation inhibitor project, biochemical, AlphaScreen (AID 2018); format: functional
[2] = target: Serine/threonine-protein phosphatase (Homo sapiens, UniProt Q9BPW0); assay: PP5 phosphatase inhibitors, dose response, biochemical, fluorescence (AID 2395)
Sequence of Serine/threonine-protein phosphatase (Q9BPW0 whole entry): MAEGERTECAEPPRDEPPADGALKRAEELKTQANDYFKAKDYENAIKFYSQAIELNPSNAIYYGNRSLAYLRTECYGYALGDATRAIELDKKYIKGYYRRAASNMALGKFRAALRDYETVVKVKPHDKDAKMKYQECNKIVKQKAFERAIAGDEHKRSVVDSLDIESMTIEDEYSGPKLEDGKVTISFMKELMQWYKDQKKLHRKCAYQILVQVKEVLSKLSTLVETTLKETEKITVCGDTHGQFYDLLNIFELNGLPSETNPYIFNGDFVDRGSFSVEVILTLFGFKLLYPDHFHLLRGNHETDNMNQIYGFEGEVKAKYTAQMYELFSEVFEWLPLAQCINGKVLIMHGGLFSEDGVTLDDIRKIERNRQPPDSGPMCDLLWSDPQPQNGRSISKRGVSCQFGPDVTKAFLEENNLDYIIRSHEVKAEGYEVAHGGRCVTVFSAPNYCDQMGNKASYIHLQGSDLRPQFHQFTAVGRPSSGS

[3] = target: Serine/threonine-protein phosphatase PP1-alpha catalytic subunit (Homo sapiens, UniProt P62136); assay: PP1 phosphatase inhibitors, dose response, biochemical, fluorescence (AID 2394)
Sequence of Serine/threonine-protein phosphatase PP1-alpha catalytic subunit (P62136 whole entry): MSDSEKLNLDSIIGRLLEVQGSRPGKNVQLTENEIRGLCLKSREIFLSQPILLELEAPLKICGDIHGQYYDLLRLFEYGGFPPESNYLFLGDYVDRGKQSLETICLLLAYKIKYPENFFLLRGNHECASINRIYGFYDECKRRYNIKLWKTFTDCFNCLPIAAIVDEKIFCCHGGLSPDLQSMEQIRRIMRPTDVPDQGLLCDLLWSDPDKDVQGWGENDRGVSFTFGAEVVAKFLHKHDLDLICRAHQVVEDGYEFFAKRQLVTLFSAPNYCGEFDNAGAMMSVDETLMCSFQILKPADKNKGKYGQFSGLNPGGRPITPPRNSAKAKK

[4] = target: Serine/threonine-protein kinase Nek2 (Homo sapiens, UniProt P51955); format: functional
[5] = target: Calcium/calmodulin-dependent protein kinase type 1 (Homo sapiens, UniProt Q14012); format: functional
[6] = target: Protein kinase C delta type (Homo sapiens, UniProt Q05655); format: functional
Sequence of Protein kinase C delta type (Q05655 whole entry): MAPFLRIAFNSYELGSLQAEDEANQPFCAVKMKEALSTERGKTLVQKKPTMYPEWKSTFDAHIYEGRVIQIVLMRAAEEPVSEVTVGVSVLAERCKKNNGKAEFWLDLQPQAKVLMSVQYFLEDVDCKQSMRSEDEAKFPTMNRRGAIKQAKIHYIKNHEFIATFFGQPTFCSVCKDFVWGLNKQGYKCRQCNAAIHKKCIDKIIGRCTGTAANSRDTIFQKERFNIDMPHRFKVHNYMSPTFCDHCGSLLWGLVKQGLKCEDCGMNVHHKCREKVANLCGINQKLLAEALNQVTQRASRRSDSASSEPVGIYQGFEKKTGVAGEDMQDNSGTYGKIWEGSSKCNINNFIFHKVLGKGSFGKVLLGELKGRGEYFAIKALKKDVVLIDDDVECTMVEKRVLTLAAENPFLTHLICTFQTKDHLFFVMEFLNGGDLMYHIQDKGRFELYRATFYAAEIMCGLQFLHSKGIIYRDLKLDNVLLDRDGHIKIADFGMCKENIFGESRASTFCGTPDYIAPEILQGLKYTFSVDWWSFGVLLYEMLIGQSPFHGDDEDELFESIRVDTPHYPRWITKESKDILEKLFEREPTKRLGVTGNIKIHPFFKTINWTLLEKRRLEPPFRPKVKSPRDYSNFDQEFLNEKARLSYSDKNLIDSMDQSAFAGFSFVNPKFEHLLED

[7] = target: Non-receptor tyrosine-protein kinase TYK2 (Homo sapiens, UniProt P29597); format: functional
[8] = target: Homeodomain-interacting protein kinase 2 (Homo sapiens, UniProt Q9H2X6); format: functional;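 also: measured within a kinome-wide kinase profiling panel, HIPK2 being one panel member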
[9] = target: Receptor tyrosine-protein kinase erbB-4 (Homo sapiens, UniProt Q15303); format: functional;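 also: ERBB4 member of a kinome-wide kinase profiling panel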
[10] = target: Calcium/calmodulin-dependent protein kinase type II subunit delta (Homo sapiens, UniProt Q13557); format: functional
[11] = target: Mitogen-activated protein kinase kinase kinase 20 (Homo sapiens, UniProt Q9NYL2); format: functional
Sequence of Mitogen-activated protein kinase kinase kinase 20 (Q9NYL2 whole entry): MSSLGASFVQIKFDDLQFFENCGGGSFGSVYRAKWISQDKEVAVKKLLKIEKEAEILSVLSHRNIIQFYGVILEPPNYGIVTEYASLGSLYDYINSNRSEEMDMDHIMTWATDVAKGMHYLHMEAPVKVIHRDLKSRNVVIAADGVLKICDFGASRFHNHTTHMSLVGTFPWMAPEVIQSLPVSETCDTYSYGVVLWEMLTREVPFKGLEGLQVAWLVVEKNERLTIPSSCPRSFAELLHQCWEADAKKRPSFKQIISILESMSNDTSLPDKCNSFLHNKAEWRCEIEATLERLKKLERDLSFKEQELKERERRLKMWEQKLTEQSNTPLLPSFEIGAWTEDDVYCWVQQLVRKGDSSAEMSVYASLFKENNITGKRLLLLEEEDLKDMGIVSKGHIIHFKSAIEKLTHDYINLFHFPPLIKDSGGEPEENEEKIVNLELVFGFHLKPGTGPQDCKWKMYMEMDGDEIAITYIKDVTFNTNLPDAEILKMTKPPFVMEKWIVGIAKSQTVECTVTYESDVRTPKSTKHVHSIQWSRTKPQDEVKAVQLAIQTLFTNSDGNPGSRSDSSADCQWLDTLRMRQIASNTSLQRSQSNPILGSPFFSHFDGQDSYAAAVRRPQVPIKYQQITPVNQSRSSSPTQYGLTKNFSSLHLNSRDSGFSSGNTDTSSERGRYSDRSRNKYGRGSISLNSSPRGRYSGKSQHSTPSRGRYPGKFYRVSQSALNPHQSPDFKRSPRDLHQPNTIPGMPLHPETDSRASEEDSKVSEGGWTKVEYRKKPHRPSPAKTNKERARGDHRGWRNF

[12] = target: cAMP-dependent protein kinase catalytic subunit alpha (Homo sapiens, UniProt P17612); format: functional
[13] = target: Protein kinase C zeta type (Homo sapiens, UniProt Q05513); format: functional;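 also: measured as one member of a broad kinase profiling panel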
[14] = target: Tyrosine-protein kinase receptor TYRO3 (Homo sapiens, UniProt Q06418); format: functional;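 also: TYRO3 value obtained as one member of a kinome-wide profiling panel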
[15] = target: Serine/threonine-protein kinase MRCK alpha (Homo sapiens, UniProt Q5VT25); format: functional
[16] = target: Serine/threonine-protein kinase PAK 1 (Homo sapiens, UniProt Q13153); format: functional
Sequence of Serine/threonine-protein kinase PAK 1 (Q13153 whole entry): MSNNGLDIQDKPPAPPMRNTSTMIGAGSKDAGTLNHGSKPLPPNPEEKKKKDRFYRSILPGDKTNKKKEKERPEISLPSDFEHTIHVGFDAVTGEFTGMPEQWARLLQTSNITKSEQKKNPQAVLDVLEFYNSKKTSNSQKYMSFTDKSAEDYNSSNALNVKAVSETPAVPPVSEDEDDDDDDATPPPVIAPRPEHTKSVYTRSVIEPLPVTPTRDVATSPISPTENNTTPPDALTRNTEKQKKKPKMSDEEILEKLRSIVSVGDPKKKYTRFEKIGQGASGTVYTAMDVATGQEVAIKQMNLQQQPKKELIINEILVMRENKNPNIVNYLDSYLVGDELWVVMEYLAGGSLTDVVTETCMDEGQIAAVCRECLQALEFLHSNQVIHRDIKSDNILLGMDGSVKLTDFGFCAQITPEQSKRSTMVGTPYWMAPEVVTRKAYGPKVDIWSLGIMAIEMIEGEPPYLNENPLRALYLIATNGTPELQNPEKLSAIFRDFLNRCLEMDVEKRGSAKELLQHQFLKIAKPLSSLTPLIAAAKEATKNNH

[17] = target: Cyclin-dependent kinase 7 (Homo sapiens, UniProt P50613); format: functional;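 also: value comes from a kinome-wide kinase profiling panel in which CDK7 is one member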
Sequence of Cyclin-dependent kinase 7 (P50613 whole entry, canonical isoform): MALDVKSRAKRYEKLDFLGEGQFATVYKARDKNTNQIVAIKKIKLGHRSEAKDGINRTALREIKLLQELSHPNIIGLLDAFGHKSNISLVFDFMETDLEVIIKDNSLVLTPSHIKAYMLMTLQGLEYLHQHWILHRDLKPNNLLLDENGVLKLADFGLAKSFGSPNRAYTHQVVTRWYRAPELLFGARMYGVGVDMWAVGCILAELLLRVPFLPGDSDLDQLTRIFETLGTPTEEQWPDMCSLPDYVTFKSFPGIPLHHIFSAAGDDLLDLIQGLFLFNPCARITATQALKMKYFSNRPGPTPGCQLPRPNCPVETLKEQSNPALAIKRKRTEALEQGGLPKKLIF

[18] = target: Casein kinase I isoform alpha (Homo sapiens, UniProt P48729); format: functional
[19] = target: Tyrosine-protein kinase SYK (Homo sapiens, UniProt P43405); format: functional
[20] = target: Tyrosine-protein kinase Fyn (Homo sapiens, UniProt P06241); format: functional
[21] = target: Leukocyte tyrosine kinase receptor (Homo sapiens, UniProt P29376); assay: Navigating the Kinome. Panel member name: LTK; format: functional
Sequence of Leukocyte tyrosine kinase receptor (P29376 whole entry, canonical isoform): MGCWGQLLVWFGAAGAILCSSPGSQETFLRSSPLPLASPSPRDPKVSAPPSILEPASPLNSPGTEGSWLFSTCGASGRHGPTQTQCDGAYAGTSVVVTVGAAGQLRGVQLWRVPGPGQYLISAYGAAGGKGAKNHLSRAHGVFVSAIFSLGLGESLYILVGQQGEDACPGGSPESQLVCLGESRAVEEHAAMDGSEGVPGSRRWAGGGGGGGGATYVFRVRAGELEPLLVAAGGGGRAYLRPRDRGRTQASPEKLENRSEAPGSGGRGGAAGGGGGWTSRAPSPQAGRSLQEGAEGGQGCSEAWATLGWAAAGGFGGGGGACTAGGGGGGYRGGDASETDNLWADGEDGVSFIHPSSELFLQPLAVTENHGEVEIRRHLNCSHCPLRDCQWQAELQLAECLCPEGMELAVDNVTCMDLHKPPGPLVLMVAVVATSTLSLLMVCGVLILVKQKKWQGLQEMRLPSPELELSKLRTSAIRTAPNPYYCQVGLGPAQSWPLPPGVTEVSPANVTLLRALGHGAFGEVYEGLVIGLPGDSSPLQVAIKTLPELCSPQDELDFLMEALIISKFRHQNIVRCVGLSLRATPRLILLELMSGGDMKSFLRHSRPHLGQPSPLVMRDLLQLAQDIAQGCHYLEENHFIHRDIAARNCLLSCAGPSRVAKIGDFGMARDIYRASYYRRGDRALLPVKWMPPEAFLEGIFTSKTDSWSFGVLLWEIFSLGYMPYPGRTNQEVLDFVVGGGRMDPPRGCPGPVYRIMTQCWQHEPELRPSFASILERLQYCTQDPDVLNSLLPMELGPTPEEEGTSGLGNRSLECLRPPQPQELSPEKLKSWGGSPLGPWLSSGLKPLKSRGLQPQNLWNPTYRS

[22] = target: Phosphorylase b kinase gamma catalytic chain, liver/testis isoform (Homo sapiens, UniProt P15735); format: functional;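 also: PHKG2 measured as one member of a kinome-wide kinase panel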
[23] = target: Mitogen-activated protein kinase 9 (Homo sapiens, UniProt P45984); format: functional;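 also: value from a kinome panel profiling assay, MAPK9 panel entry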
[24] = target: Ribosomal protein S6 kinase alpha-3 (Homo sapiens, UniProt P51812); format: functional;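 also: measured within a kinome-wide profiling panel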
[25] = target: Proto-oncogene tyrosine-protein kinase Src (Homo sapiens, UniProt P12931); format: functional;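 also: SRC entry within a kinome-wide kinase profiling panel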
[26] = target: Homeodomain-interacting protein kinase 4 (Homo sapiens, UniProt Q8NE63); format: functional
[27] = target: Rho-associated protein kinase 1 (Homo sapiens, UniProt Q13464); format: functional;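 also: measured within a broad kinome-wide panel profiling many kinases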
[28] = target: Fibroblast growth factor receptor 1 (Homo sapiens, UniProt P11362); format: functional
[29] = target: Insulin-like growth factor 1 receptor (Homo sapiens, UniProt P08069); assay: Navigating the Kinome. Panel member name: IGF1R; format: functional
[30] = target: Cyclin-dependent kinase 5 (Homo sapiens, UniProt Q00535); format: functional;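 also: CDK5 measured as one member of a kinase profiling panel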
Sequence of Cyclin-dependent kinase 5 (Q00535 whole entry): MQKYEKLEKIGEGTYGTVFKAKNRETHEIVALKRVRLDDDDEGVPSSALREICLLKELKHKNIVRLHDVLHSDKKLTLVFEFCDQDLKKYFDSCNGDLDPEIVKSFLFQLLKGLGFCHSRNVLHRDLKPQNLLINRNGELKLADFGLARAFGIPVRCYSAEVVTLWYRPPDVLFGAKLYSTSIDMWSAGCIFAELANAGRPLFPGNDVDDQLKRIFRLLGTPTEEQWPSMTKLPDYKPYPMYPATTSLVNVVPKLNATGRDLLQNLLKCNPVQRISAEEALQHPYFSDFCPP

[31] = target: G protein-coupled receptor kinase 5 (Homo sapiens, UniProt P34947); assay: Navigating the Kinome. Panel member name: GPRK5; format: functional
[32] = target: MAP kinase-interacting serine/threonine-protein kinase 2 (Homo sapiens, UniProt Q9HBH9); format: functional
[33] = target: RAC-gamma serine/threonine-protein kinase (Homo sapiens, UniProt Q9Y243); format: functional
[34] = target: Tyrosine-protein kinase Srms (Homo sapiens, UniProt Q9H3Y6); format: functional;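 also: SRMS measured as one member of a kinome-wide kinase profiling panel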
[35] = target: Serine/threonine-protein kinase Chk1 (Homo sapiens, UniProt O14757); format: functional;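 also: measured as one member of a kinome-wide kinase profiling panel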
[36] = target: Induced myeloid leukemia cell differentiation protein Mcl-1 (Homo sapiens, UniProt Q07820); format: functional
Sequence of Induced myeloid leukemia cell differentiation protein Mcl-1 (Q07820 whole entry): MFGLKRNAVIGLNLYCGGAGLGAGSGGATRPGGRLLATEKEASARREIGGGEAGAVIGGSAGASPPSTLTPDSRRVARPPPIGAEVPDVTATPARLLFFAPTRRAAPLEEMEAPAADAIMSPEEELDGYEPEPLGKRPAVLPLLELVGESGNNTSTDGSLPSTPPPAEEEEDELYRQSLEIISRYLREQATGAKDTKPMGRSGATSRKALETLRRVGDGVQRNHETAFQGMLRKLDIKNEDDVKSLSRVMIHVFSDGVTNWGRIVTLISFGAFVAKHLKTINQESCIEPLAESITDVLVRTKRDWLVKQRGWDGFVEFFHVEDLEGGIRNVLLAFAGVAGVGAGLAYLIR

A-375 = assay: MITF: Counter assay: A375 proliferation Measured in Cell-Based System Using Plate Reader - 2084-03_Inhibitor_Dose_DryPowder_Activity. [Related pubchem assays (depositor defined):AID488944]; format: functional; settings: Homo sapiens
[37] = cytotoxicity toward NIH3T3 fibroblasts, dose response, counter-screen, cell-based, ATP luminescence, mouse fibroblasts (AID 2010); format: functional;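 also: cells exposed to compound for about 90 hours before reading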

Compound: NS(=O)(=O)c1ccc(NC2=CC(=O)C(=O)c3ccccc32)cc1
- EC50 [1]: 24400 nM (active)
- IC50 (Genome polyprotein): 39000 nM (active)
- IC50 (SUMO-activating enzyme): 2110 nM (active)
- IC50 [2]: > 67000 nM (not active)
- IC50 [3]: 38900 nM (not active)

Compound: Clc1cc(-c2c[nH]c3ncccc23)nc(NC2CCCCC2)n1
- Ki [4]: > 10000 nM (inactive)
- Ki [5]: > 6310 nM (inactive)
- Ki [6]: > 7940 nM (inactive)
- Ki [7]: > 2000 nM (inactive)
- Ki [8]: 100 nM (active)
- Ki [9]: > 3980 nM (inactive)
- Ki [10]: > 1260 nM (inactive)
- Ki [11]: > 7940 nM (inactive)
- Ki [12]: 251 nM (active)
- Ki [13]: > 7940 nM (inactive)
- Ki [14]: > 2510 nM (inactive)
- Ki [15]: 126 nM (active)
- Ki [16]: > 10000 nM (inactive)
- Ki [17]: > 6310 nM (inactive)
- Ki [18]: 1580 nM (active)
- Ki [19]: > 1580 nM (inactive)
- Ki [20]: > 794 nM (inactive)
- Ki [21]: > 2510 nM (inactive)
- Ki [22]: > 5010 nM (inactive)
- Ki [23]: 3160 nM (active)
- Ki [24]: > 2000 nM (inactive)
- Ki [25]: > 2000 nM (inactive)
- Ki [26]: 1260 nM (active)
- Ki [27]: 15.8 nM (active)
- Ki [28]: > 3980 nM (inactive)
- Ki [29]: > 2000 nM (inactive)
- Ki [30]: 126 nM (active)
- Ki [31]: > 3980 nM (inactive)
- Ki [32]: 79.4 nM (active)
- Ki [33]: > 10000 nM (inactive)
- Ki [34]: > 1580 nM (inactive)
- Ki [35]: 3980 nM (active)

Compound: O=C(N/N=C/c1ccc(O)cc1O)c1ccc(CN2C(=O)c3cccc4cccc2c34)cc1
- IC50 [36]: 1470 nM (active)

Compound: CCC(=O)NC(c1ccccc1OC)c1ccc2cccnc2c1O (stereo not given)
- AC50 (A-375): 35000 nM (active)
- EC50 [37]: 1670 nM (active)
